Measured values as given in patent US11844350B2, “Plant growth regulation” (Syngenta Participations AG, priority 2017, dated 2023).

System: rice (Oryza sativa L.) varieties ADT45
Experiment: Plant growth regulation field trial in rice, India (lodging, plant height, heat stress symptoms)
Assay type: in vivo
Description: Field trials were setup during the hot season in Annanagar and Kumbakonam in India. Local rice (Oryza sativa L.) varieties ADT45 was mechanically transplanted at four plants per hill with a plant spacing of 16 cm and a row spacing of 30 cm. All trials were performed in good level of water management. Fertilizer application, and weed, insect and disease control were carried out in accordance with the best local practice across the trial area. Commercial treated seeds were used (with no neonicotinoid compounds present).
The trial design was a randomized bloc design, with a plot size of 40 m^2 (12 rows, each […] and 10 m long); each trial had four replicates.
Overall trial quality was very high: there was no insect damage and no disease pressure or weeds; the plots were very homogenous. Heat stress level was low to medium with 5-10% empty spikelets in the untreated control.

COc1cccc(Nc2nc(F)nc3[nH]cnc23)c1 [Formula (Ia)]
Lodging (%) (10 g ai/ha, applied at panicle initiation (BBCH 30)): 29.0%
Lodging (%) (20 g ai/ha, applied at BBCH 30): 56.0%
Lodging compared to the untreated control (result in words): significantly reduces lodging
